Measured values published in patent US12503438B2, “Compounds for the treatment of kinase-dependent disorders” (Exelixis, Inc., priority 2019, dated 2025).

How the values were obtained:
Mer = molecular target: T1, Mer (Homo sapiens, UniProt Q12866); assay: Mer autophosphorylation ELISA in transient transfected 293A cells; assay type: cell-based; details: cellular activity; MERTK-transfected 293A cells, phospho-Mer ELISA
T1 construct: host or cells: 293A cells (Thermo Fisher #R70507)
T1 sequence (Q12866 21-999): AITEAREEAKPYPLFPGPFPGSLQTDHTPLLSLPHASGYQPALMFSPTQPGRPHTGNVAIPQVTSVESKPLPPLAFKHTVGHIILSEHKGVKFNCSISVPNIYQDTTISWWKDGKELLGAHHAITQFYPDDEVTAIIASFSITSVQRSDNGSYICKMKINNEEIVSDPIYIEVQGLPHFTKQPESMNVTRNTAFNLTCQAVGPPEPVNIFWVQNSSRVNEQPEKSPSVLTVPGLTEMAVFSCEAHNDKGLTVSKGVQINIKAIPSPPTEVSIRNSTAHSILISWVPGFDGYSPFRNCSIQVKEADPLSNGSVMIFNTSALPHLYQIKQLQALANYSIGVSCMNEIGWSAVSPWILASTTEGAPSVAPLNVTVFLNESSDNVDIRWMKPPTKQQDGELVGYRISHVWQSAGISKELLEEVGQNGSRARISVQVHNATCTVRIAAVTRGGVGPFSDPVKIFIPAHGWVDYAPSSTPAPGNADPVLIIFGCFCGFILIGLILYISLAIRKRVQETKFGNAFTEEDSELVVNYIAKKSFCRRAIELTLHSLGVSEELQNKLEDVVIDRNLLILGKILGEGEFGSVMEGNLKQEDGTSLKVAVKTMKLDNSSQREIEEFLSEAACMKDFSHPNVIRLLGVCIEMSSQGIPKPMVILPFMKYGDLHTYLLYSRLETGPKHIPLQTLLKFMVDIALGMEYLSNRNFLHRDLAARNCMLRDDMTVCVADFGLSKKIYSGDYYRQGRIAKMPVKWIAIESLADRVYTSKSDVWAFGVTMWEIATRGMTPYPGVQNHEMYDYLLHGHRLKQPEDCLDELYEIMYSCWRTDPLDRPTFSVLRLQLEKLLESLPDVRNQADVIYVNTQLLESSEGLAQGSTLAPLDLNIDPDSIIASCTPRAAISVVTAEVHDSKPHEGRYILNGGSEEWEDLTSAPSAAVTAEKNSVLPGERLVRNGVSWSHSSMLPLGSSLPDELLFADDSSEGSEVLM
Experimental: 293A cells (Thermo Fisher #R70507) were seeded at 1.5×10^6 cells/well onto 100 mm dish (Greiner #664169), in DMEM (Thermo Fisher #11995-040) containing 10% FBS (Thermo Fisher #26140-079), 1% MEM NEAA (Thermo Fisher #11140-050), 1% GlutaMax (Thermo Fisher #35050-061), and 1% Penicillin Streptomycin (Thermo Fisher #15140-122). 293A cells were incubated at 37° C., 5% CO2 for 24 h and then transfected with 6 μg MERTK DNA (Genecopoeia #EX-Z8208-M02) using TransIT LT1 transfection reagent (Mirus-Bio #MIR2305). After 24 h incubation, the transfected 293A cells were seeded at 1×10^5 cells/well onto 96-well plates (Corning #3904) in DMEM growth medium overnight. Test compounds were serially diluted to produce an 8-point dose curve in fresh serum-free medium to a final concentration of 0.3% DMSO (vehicle) and added to the cells and incubated for 1 h. Cells were then immediately lysed with 150 μL of cold 1× lysis buffer [20 mM Tris, 137 mM sodium chloride, 2 mM EDTA, 10% glycerol, 1% NP-40 alternative, 1 mM activated sodium orthovanadate, 1 mM PefaBloc SC (Sigma-Aldrich #11429868001), protease/phosphatase inhibitor tablet (Thermo Fisher #A32959)]. Lysates were clarified by centrifugation and 50 μL/well added into the human phospho-Mer DuoSet IC ELISA (R&D Systems #DYC2579-2). Assay was performed according to manufacturer's instructions and sample phospho-Mer concentrations were extrapolated using human phospho-Mer control (R&D Systems #841793) as a standard. Positive control wells (100% activity) contained DMSO-treated cell lysates. Negative control wells (0% activity) contained reference inhibitor-treated cell lysates. IC50 values were calculated by nonlinear regression analysis using a 4-parameter logistic curve fit in ActivityBase XE (IDBS).

Met = Met (Homo sapiens, UniProt P08581); assay: Met autophosphorylation ELISA in PC-3 cells; assay type: cell-based; set-up: endogenous in cells; host or cells: PC-3 prostate cancer cells (ATCC #CRL-1435); details: cellular activity, HGF-stimulated, phospho-Met ELISA, read-out: c-Met IC50
Chain of Met (P08581 25-1390): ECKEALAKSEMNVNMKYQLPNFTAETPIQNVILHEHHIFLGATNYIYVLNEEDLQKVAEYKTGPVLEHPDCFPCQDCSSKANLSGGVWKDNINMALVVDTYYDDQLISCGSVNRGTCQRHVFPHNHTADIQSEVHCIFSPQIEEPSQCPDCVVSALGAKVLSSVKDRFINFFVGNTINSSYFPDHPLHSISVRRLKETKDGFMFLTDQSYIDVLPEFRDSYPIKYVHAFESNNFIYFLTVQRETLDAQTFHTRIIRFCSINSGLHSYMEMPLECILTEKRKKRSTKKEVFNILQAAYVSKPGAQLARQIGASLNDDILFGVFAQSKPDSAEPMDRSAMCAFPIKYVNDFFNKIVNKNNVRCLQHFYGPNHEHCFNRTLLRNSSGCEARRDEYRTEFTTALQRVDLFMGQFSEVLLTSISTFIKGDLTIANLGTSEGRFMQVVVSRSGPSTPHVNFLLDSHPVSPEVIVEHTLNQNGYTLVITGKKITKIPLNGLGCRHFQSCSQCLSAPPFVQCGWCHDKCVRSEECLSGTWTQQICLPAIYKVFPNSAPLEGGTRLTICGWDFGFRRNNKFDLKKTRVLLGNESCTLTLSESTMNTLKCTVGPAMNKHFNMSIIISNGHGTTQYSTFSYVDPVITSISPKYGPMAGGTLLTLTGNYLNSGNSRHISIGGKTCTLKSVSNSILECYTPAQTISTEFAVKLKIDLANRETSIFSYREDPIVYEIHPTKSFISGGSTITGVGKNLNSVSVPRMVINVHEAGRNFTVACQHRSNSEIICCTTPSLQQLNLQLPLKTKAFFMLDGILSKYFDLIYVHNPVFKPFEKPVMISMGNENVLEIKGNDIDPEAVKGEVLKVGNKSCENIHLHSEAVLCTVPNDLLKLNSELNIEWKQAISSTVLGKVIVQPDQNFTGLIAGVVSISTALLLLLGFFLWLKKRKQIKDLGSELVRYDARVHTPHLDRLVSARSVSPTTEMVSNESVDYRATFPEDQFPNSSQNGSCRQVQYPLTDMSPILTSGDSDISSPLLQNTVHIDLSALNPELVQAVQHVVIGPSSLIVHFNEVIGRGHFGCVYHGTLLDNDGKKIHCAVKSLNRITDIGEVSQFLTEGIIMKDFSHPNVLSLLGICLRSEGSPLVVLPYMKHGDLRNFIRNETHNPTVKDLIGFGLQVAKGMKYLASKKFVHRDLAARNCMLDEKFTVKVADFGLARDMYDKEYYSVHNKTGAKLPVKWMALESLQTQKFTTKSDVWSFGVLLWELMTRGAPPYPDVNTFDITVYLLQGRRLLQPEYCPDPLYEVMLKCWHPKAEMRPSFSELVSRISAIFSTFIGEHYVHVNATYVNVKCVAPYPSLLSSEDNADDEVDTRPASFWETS
Experimental: PC-3 prostate cancer cells (ATCC #CRL-1435) were seeded at 4×10^4 cells/well onto 24-well plates (Greiner #662165), in DMEM (Thermo Fisher #11995-040) containing 10% FBS (Thermo Fisher #26140-079), 1% MEM NEAA (Thermo Fisher #11140-050), 1% GlutaMax (Thermo Fisher #35050-061), and 1% Penicillin Streptomycin (Thermo Fisher #15140-122). PC-3 cells were incubated at 37° C., 5% CO2 for 24 h and then starved for 3 h in serum-free medium. Test compounds were serially diluted to produce an 8-point dose curve in fresh serum-free medium to a final concentration of 0.3% DMSO (vehicle) and added to the cells and incubated for 1 h. Cells were then stimulated with 100 ng/mL recombinant human HGF (R&D Systems #294-HG-250) for 10 min, washed with cold PBS and immediately lysed with 130 μL of cold 1× lysis buffer [20 mM Tris, 137 mM sodium chloride, 2 mM EDTA, 10% glycerol, 1% NP-40 alternative, 1 mM activated sodium orthovanadate, 1 mM PefaBloc SC (Sigma-Aldrich #11429868001), protease/phosphatase inhibitor tablet (Thermo Fisher #A32959)]. Lysates were clarified by centrifugation and 100 μL/well added into the PathScan phospho-Met (panTyr) Sandwich ELISA (Cell Signaling Technology #7333). Assay was performed according to manufacturer's instructions. Positive control wells (100% activity) contained HGF-stimulated, DMSO-treated cell lysates. Negative control wells (0% activity) contained HGF-stimulated, reference inhibitor-treated cell lysates. IC50 values were calculated by nonlinear regression analysis using a 4-parameter logistic curve fit in ActivityBase XE (IDBS).

SMILES	IC50 (Mer)	IC50 (Met)
Cn1ccc(-c2ccc3c(Oc4ccc(NC(=O)C5(C(=O)Nc6ccc(F)cc6)CC5)cc4)ccnc3c2)n1 [Compound 17, 1-N′-(4-Fluorophenyl)-1-N-[4-[7-(1-methylpyrazol-3-yl)quinolin-4-yl]oxyphenyl]cyclopropane-1,1-dicarboxamide]	10 to 100 nM	10 to 100 nM
O=C(Nc1ccc(F)cc1)C1(C(=O)Nc2ccc(Oc3ccnc4cc(-c5cnn(CCN6CCOCC6)c5)ccc34)cc2)CC1 [Compound 19, 1-N′-(4-Fluorophenyl)-1-N-[4-[7-[1-(2-morpholin-4-ylethyl)pyrazol-4-yl]quinolin-4-yl]oxyphenyl]cyclopropane-1,1-dicarboxamide]	≤ 10 nM	10 to 100 nM
CCn1cc(-c2ccc3c(Oc4ccc(NC(=O)C5(C(=O)Nc6ccc(F)cc6)CC5)cc4)ccnc3c2)cn1 [Compound 20, 1-N-[4-[7-(1-Ethylpyrazol-4-yl)quinolin-4-yl]oxyphenyl]-1-N′-(4-fluorophenyl)cyclopropane-1,1-dicarboxamide]	≤ 10 nM	10 to 100 nM
CC(C)n1cc(-c2ccc3c(Oc4ccc(NC(=O)C5(C(=O)Nc6ccc(F)cc6)CC5)cc4)ccnc3c2)cn1 [Compound 21, 1-N′-(4-Fluorophenyl)-1-N-[4-[7-(1-propan-2-ylpyrazol-4-yl)quinolin-4-yl]oxyphenyl]cyclopropane-1,1-dicarboxamide]	10 to 100 nM	10 to 100 nM
Cc1noc(C)c1-c1ccc2c(Oc3ccc(NC(=O)C4(C(=O)Nc5ccc(F)cc5)CC4)cc3)ccnc2c1 [Compound 53, 1-N-[4-[7-(3,5-Dimethyl-1,2-oxazol-4-yl)quinolin-4-yl]oxyphenyl]-1-N′-(4-fluorophenyl)cyclopropane-1,1-dicarboxamide]		100 to 300 nM
C[Si](C)(C)C#Cc1ccc2c(Oc3ccc(NC(=O)C4(C(=O)Nc5ccc(F)cc5)CC4)cc3)ccnc2c1 [Compound 63, 1-N′-(4-Fluorophenyl)-1-N-[4-[7-(2-trimethylsilylethynyl)quinolin-4-yl]oxyphenyl]cyclopropane-1,1-dicarboxamide]		> 300 nM
C#Cc1ccc2c(Oc3ccc(NC(=O)C4(C(=O)Nc5ccc(F)cc5)CC4)cc3)ccnc2c1 [Compound 64, 1-N-[4-(7-Ethynylquinolin-4-yl)oxyphenyl]-1-N′-(4-fluorophenyl)cyclopropane-1,1-dicarboxamide]		100 to 300 nM
O=C(Nc1ccc(F)cc1)C1(C(=O)Nc2ccc(Oc3ccnc4cc(-c5cnn[nH]5)ccc34)cc2)CC1 [Compound 65, 1-N′-(4-Fluorophenyl)-1-N-[4-[7-(1H-triazol-5-yl)quinolin-4-yl]oxyphenyl]cyclopropane-1,1-dicarboxamide]		> 300 nM
CN(C(=O)C1(C(=O)Nc2ccc(Oc3ccnc4cc(-c5cnn(C)c5)ccc34)cc2)CC1)c1ccc(F)cc1 [Compound 82A, 1-N′-(4-Fluorophenyl)-1-N′-methyl-1-N-[4-[7-(1-methylpyrazol-4-yl)quinolin-4-yl]oxyphenyl]cyclopropane-1,1-dicarboxamide]		> 300 nM

Now from value to molecule:

IC50 (Mer)	IC50 (Met)	SMILES
≤ 10 nM	10 to 100 nM	COCCn1cc(-c2ccc3c(Oc4ccc(NC(=O)C5(C(=O)Nc6ccc(F)cc6)CC5)cc4)ccnc3c2)cn1 [Compound 10, 1-N′-(4-Fluorophenyl)-1-N-[4-[7-[1-(2-methoxyethyl)pyrazol-4-yl]quinolin-4-yl]oxyphenyl]cyclopropane-1,1-dicarboxamide]
≤ 10 nM	≤ 10 nM	Cn1cc(-c2ccc3c(Oc4ccc(NC(=O)C5(C(=O)Nc6ccc(F)cc6)CC5)cc4)ccnc3c2)cn1 [Compound 11, 1-N′-(4-Fluorophenyl)-1-N-[4-[7-(1-methylpyrazol-4-yl)quinolin-4-yl]oxyphenyl]cyclopropane-1,1-dicarboxamide]
100 to 300 nM	10 to 100 nM	O=C(Nc1ccc(F)cc1)C1(C(=O)Nc2ccc(Oc3ccnc4cc(-c5cnn(C(F)(F)F)c5)ccc34)cc2)CC1 [Compound 12, 1-N′-(4-Fluorophenyl)-1-N-[4-[7-[1-(trifluoromethyl)pyrazol-4-yl]quinolin-4-yl]oxyphenyl]cyclopropane-1,1-dicarboxamide]
10 to 100 nM	10 to 100 nM	O=C(Nc1ccc(F)cc1)C1(C(=O)Nc2ccc(Oc3ccnc4cc(-c5cnn(C(F)F)c5)ccc34)cc2)CC1 [Compound 13, 1-N-[4-[7-[1-(Difluoromethyl)pyrazol-4-yl]quinolin-4-yl]oxyphenyl]-1-N′-(4-fluorophenyl)cyclopropane-1,1-dicarboxamide]
≤ 10 nM	≤ 10 nM	O=C(Nc1ccc(F)cc1)C1(C(=O)Nc2ccc(Oc3ccnc4cc(-c5cnn(CCF)c5)ccc34)cc2)CC1 [Compound 14, 1-N-[4-[7-[1-(2-Fluoroethyl)pyrazol-4-yl]quinolin-4-yl]oxyphenyl]-1-N′-(4-fluorophenyl)cyclopropane-1,1-dicarboxamide]
≤ 10 nM	10 to 100 nM	O=C(Nc1ccc(F)cc1)C1(C(=O)Nc2ccc(Oc3ccnc4cc(-c5cnn(CC(F)F)c5)ccc34)cc2)CC1 [Compound 15, 1-N-[4-[7-[1-(2,2-Difluoroethyl)pyrazol-4-yl]quinolin-4-yl]oxyphenyl]-1-N′-(4-fluorophenyl)cyclopropane-1,1-dicarboxamide]
10 to 100 nM	10 to 100 nM	O=C(Nc1ccc(F)cc1)C1(C(=O)Nc2ccc(Oc3ccnc4cc(-c5cnn(CC(F)(F)F)c5)ccc34)cc2)CC1 [Compound 16, 1-N′-(4-Fluorophenyl)-1-N-[4-[7-[1-(2,2,2-trifluoroethyl)pyrazol-4-yl]quinolin-4-yl]oxyphenyl]cyclopropane-1,1-dicarboxamide]
≤ 10 nM	≤ 10 nM	O=C(Nc1ccc(F)cc1)C1(C(=O)Nc2ccc(Oc3ccnc4cc(-c5cnn(CCO)c5)ccc34)cc2)CC1 [Compound 18, 1-N′-(4-Fluorophenyl)-1-N-[4-[7-[1-(2-hydroxyethyl)pyrazol-4-yl]quinolin-4-yl]oxyphenyl]cyclopropane-1,1-dicarboxamide]
